Data from patent publication US11008292B2, “FGFR4 inhibitor and preparation method and use thereof” (GUANGDONG ZHONGSHENG PHARMACEUTICAL CO., LTD, priority 2016, dated 2021).
pIC50: −log10 of the molar value.

What was measured:
[1] = target: T1, FGFR4 kinases (Homo sapiens, UniProt P22455); assay: In vitro enzyme activity test, Z′-LYTE Assay, FGFR4 enzymatic reaction; type: biochemical; settings: Z′-LYTE detection; 150 μM ATP
T1 construct: purchased Life technology
Protocol: (§1) The inhibitory effects of the compounds on FGFR4 kinases were assessed by detecting the enzymatic activities through Z′-LYTE® Assay, with the IC50 value of the compound as the indicator. This activity test was performed by Life technology.
(§2) The test compounds were diluted in a concentration gradient of 3-times, the final concentrations were 10 concentrations ranging from 10 μM to 0.5 nM, with double hole for each concentration; the content of DMSO in the detection reaction was 1%.
FGFR4 Enzymatic Reaction:
[…] The detection plate was Bar-coded Corning, low volume NBS, black 384-well plate, reaction conducted at room temperature for 60 minutes, and the reaction system was 10μμL.
(§3) To the kinase reaction solution was added 5 μL Development reagent B (1:64) to stop the reaction and incubated at 23° C. for 60 minutes, reading the plate with Envision instrument.
(§4) Data was transformed into the phosphorylation rate and the inhibitory rate by curve fitting with Model 205 in XLFIT (iDBS) to obtain the IC50 data of the compounds. It was set as 0% if the bottom of the curve was not in the range of −20% to 20%; otherwise it was set as 100% if the top of the curve was not in the range of 70% to 130%.

[2] = target: T2, FGFR1 protein kinase (Homo sapiens, UniProt P11362); assay: In vitro enzyme activity test, Z′-LYTE Assay, FGFR1 enzymatic reaction; type: biochemical; settings: Z′-LYTE detection; 25 μM ATP
T2 construct: purchased Life technology
T2 sequence (P11362 22-822): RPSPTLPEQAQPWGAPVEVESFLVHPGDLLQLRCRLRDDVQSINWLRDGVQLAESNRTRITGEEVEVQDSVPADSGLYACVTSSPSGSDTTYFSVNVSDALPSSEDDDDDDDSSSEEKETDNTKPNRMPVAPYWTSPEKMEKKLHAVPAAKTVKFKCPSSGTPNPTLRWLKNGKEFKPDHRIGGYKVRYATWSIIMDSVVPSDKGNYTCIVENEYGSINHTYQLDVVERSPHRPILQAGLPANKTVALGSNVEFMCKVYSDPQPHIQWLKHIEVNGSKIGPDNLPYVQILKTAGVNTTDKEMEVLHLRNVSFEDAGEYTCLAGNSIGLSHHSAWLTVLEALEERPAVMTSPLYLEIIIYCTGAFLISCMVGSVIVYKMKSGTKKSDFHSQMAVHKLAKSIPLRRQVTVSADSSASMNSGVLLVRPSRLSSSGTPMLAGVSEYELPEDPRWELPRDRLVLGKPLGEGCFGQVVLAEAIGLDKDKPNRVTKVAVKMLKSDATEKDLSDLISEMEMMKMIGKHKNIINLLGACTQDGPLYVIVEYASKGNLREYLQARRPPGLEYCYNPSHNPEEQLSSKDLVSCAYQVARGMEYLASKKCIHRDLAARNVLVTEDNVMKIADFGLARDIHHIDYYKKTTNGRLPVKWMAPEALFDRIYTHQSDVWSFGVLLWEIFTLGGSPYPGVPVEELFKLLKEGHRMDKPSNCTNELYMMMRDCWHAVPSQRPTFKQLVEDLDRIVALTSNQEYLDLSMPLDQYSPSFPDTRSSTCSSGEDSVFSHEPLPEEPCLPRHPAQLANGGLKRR
Protocol: as §1, §2
FGFR1 Enzymatic Reaction:
1 nM FGFR1 protein kinase, 2 μM Tyr4 peptide, 25 μM ATP, 50 mM HEPES (pH 7.5), 10 mM MgCl2, 1 mM EGTA, 0.01% BRIJ-35, 2 mM MnCl2, 1 mM DTT. The detection plate was Black Proxiplate 384-Plus plate (PerkinElmer), reaction conducted at room temperature for 60 minutes, and the reaction system was 10μμL.
as §3, §4

[3] = Pharmacokinetic evaluation in mice (IV and oral gavage); type: in vivo, female Balb/c nude mice; settings: for AUC(0-t) / clearance / half-life / Vd / Cmax / Tmax: mouse, plasma; for clearance: read-out: Cl (plasma clearance); for half-life: read-out: T1/2 (elimination half-life) (converted); for Vd: read-out: Vdss (steady-state apparent volume of distribution); for Cmax: read-out: Cmax (peak concentration); for Tmax: read-out: Tmax (time to peak)
Protocol: […] The test compound suspended in the corresponding solvent at 1 mg/ml was administered by gavage to female Balb/c nude mice (fasted overnight, at an age of 7-9 weeks), with a dosage of 10 mg/kg. Two groups of animals were both blood sampled about 30 μL from jugular vein or tail vein at 0.0833, 0.25, 0.5, 1.0, 2.0, 4.0, 6.0, 8.0 and 24 h post-administration, which was placed into an anticoagulant tube charged with EDTA-K2, and plasma was separated by centrifugation. Plasma concentrations were determined by LC-MS/MS process using WinNonlin™ Version 6.3 (Pharsight, Mountain View, Calif.) pharmacokinetic software, calculating the related pharmacokinetic parameters with a linear logarithmic trapezoidal method for […] models.

[4] = tested on: Hep3B Transplantation Models; assay: Tumor growth inhibition (TGI), antitumor activity test of mice in vivo; settings: 100 mg/kg, BID, Hep3B transplantation model
Protocol: The evolutionary growth potential of a tumor was assessed by the relationship between the volume of the tumor and time. The long axis (L) and short axis (W) of a subcutaneous tumor were determined by a caliper twice a week, the tumor volume (TV) was calculated by the formula of ((L×W^2)/2). TGI was calculated by the difference value between the median of tumor volumes of mice in the solvent group and the median of tumor volumes of mice in the drug group, and represented by the percentage accounting for the median of tumor volumes in the solvent control group,
Calculated by the following formula: % TGI=((the median of tumor volume (control group)−the median of tumor volume (dosing group))/the median of tumor volume (control group))×100%
The original statistical analysis was completed by the analysis of repeated variance determination. Subsequently, multiple comparisons were performed by a Scheffe psot hoc experimental method. Single solvent (0.5% methylcellulose+1% aqueous solution of Tween) was the negative control.

[5] = IV tail vein 2 mg/kg, female Balb/c nude mice
[6] = PO gavage 10 mg/kg, female Balb/c nude mice

T1 sequence (P22455 22-802): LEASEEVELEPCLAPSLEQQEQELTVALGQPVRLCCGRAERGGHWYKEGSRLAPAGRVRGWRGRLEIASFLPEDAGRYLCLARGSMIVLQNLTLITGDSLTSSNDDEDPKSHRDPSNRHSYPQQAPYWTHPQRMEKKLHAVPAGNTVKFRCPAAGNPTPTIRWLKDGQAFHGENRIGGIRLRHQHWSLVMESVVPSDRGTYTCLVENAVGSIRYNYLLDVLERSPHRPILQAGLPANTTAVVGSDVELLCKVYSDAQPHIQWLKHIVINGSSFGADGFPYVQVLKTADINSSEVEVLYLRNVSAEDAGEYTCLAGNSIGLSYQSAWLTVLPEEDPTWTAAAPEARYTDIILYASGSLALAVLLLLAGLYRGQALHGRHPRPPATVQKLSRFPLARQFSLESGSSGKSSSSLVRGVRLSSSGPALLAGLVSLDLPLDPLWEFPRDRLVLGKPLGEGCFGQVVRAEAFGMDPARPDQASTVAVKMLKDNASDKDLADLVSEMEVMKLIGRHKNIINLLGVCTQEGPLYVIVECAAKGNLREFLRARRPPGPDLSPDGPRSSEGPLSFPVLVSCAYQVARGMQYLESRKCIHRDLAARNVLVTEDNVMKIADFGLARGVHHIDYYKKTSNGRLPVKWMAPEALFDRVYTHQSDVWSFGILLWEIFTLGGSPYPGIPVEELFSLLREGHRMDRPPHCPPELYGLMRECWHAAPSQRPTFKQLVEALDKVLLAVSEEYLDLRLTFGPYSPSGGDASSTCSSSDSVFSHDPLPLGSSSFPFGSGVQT

| pIC50 [1] | pIC50 [2] | stability enhanced (plasma clearance) compared with the control example 4 ([3]; IV, mice, ratio to control example 4) [times] | AUC(0-t) [3, 5] [µM·h] | clearance [3, 5] [mL/min/kg] | half-life [3, 5] [min] | Vd [3, 5] [L/kg] | AUC(0-t) [3, 6] [µM·h] | Cmax [3, 6] [nM] | Tmax [3, 6] [min] | F (bioavailability; oral absorption ratio) ([3]; PO gavage 10 mg/kg vs IV 2 mg/kg, female Balb/c nude mice) [%] | SMILES | TGI % (dosing on Day 21 for the last time) [4] [%] |
| --- | --- | --- | --- | --- | --- | --- | --- | --- | --- | --- | --- | --- |
| 7.17 | 5.60 | 3 | 2.8 | 23.9 | 40.6 | 1.2 | 5.64 | 3290 | 30 |  | C=CC(=O)N[C@H]1CCOC[C@H]1Nc1ncc(/C=C(\F)c2c(Cl)c(OC)cc(OC)c2Cl)cn1 [Example 16] | 89 |
| 7.77 | 5.84 |  | 1.42 | 48.2 | 17.5 | 0.723 | 1.07 | 1120 | 15 | 20.4 | C=CC(=O)NC1COCC1Nc1ncc(C=C(F)c2c(Cl)c(OC)cc(OC)c2Cl)cn1 (single isomer, unassigned) [Example 21] | 106 |
